A word on the IC50: it is the point on the concentration scale where inhibition reaches its midpoint. Low readings indicate higher potency, high ones lower potency. As usually defined, the kinact is the maximal first-order rate at which the target is inactivated.

The values below come from US12371400B2, “Cathepsin inhibitors” (ACADEMISCH ZIEKENHUIS LEIDEN (H.O.D.N. LUMC), priority 2017, dated 2025).

Assay [1] has as its target T1, hCatK (Homo sapiens, UniProt P43235).
T1 sequence (P43235 115-329): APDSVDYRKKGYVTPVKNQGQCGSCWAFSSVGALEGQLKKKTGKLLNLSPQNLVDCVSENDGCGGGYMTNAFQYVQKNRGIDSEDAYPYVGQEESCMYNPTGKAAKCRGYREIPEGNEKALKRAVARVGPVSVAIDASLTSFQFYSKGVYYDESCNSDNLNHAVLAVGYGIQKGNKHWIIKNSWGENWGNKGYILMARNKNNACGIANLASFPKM
The assay can be described thus: In vitro inhibition of purified human Cathepsin K (fluorogenic substrate Z-FR-AMC). The following applies: for IC50: purified human Cathepsin, 30 min incubation with inhibitor, mean ± SD, triplicate. Format: biochemical. As to the method:
(§1) Cathepsin (e.g. Cathepsin K/L/V/S/B), in particular purified human Cathepsin, was diluted in freshly prepared reaction buffer consisting of 50 mM MES pH 5.5, 25 mM EDTA and 2.5 mM DTT. 0.05% Tween20 (v/v) may be added to the reaction buffer of the Cathepsin K.
(§2) Activity assays may be conducted in a suitable manner. In the experiments described herein, the assays were typically conducted in Corning 3820 Low Volume 384 Well Assay Plate with a final assay volume of 20 μL. Plates were shaken at 600 rpm for 1 minute and centrifuged at 1000 rpm for 1 minute prior to incubation. Cathepsin activity was quantified using synthetic fluorogenic peptide substrate Z-FR-AMC (Cath K, L, V), Z-RR-AMC (Cath B) or Z-FVR-AMC (Cath S). Fluorescence intensity (λex=350 nm, λem=440 nm) was measured every 2 minutes in arbitrary units (A.U.) on a CLARIOstar (BMG Labtech) microplate reader and values were converted to product formation [AMC]. […] Measurements were performed in triplicate.
(§3) Inhibitors (200 nL, 100× final concentration in DMSO) were diluted in reaction buffer (10 μL). Purified human Cathepsin (5 μL, 4× final concentration) was added and the reaction mixture was incubated for 30 min at room temperature. Fluorogenic substrate (5 μL, 4× final concentration) was added and fluorescence intensity was measured every 2 minutes for 30-90 minutes.
(§4) The potency of the compounds as CatK inhibitors was assessed in an in vitro inhibition assay on purified human CatK (Table 2). Cathepsin was incubated with inhibitor, and the hydrolysis of substrate was initiated by addition of substrate.

The next assay addresses hCatL (Homo sapiens, UniProt P07711). The assay is described as follows: In vitro inhibition of purified human Cathepsin L (Z-FR-AMC). The following applies: 30 min incubation with inhibitor, mean ± SD, triplicate. The class given is biochemical. The protocol: as §1
(§5) Activity assays may be conducted in a suitable manner. […] Plates were shaken at 600 rpm for 1 minute and centrifuged at 1000 rpm for 1 minute prior to incubation. Cathepsin activity was quantified using synthetic fluorogenic peptide substrate Z-FR-AMC (Cath K, L, V), Z-RR-AMC (Cath B) or Z-FVR-AMC (Cath S). Fluorescence intensity (λex=350 nm, λem=440 nm) was measured every 2 minutes in arbitrary units (A.U.) on a CLARIOstar (BMG Labtech) microplate reader and values were converted to product formation [AMC]. […] Measurements were performed in triplicate.
as §3, §4

In assay [2] the target is T1, hCatK. The assay is described as follows: Kinetic evaluation of covalent inhibitors on purified hCatK. The class given is biochemical. The following applies: 100 pM hCatK, 4 μM Z-FR-AMC, 26° C., reaction started by addition of CatK; for Ki: read-out: Kl. The protocol: The reaction kinetics of irreversible covalent inhibitor compounds may be assed in the following manner. Inhibitors (200 nL, 100× final concentration in DMSO) were diluted in reaction buffer (10 μL). Fluorogenic substrate (5 μL, 4× final concentration) was added and the reaction was started by addition of Cathepsin (5 μL, 4× final concentration). Fluorescence intensity was measured every 2 minutes for 60 minutes and fitted to equation I to obtain the Kobs. The obtained values were plotted against the inhibitor concentration and fitted to equation II to obtain kinetic parameters Kinact (rate of covalent bond formation) and Ki.
Kinetic evaluation of irreversible covalent inhibitors was conducted by following the progress curve of inhibition when the hydrolysis of substrate is started by addition of the enzyme (instead of incubating the protease with the inhibitor prior to addition of the substrate). From this curve the maximum rate of covalent bond formation (Kinact) could be determined (Table 4).

A further assay addresses hCatS (Homo sapiens, UniProt P25774). The assay can be described thus: In vitro inhibition of purified human Cathepsin S (Z-FVR-AMC). Format: biochemical. As to conditions: 30 min incubation with inhibitor, mean ± SD, triplicate. As to the method: as §1, §2, §3, §4
A further assay addresses hCatV (Homo sapiens, UniProt O60911). The assay can be described thus: In vitro inhibition of purified human Cathepsin V (Z-FR-AMC). Format: biochemical. The following applies: 30 min incubation with inhibitor, mean ± SD, triplicate. The protocol: as §1, §5, §3, §4
The next assay deals with hCatB (Homo sapiens, UniProt P07858). The assay is described as follows: In vitro inhibition of purified human Cathepsin B (Z-RR-AMC). Format: biochemical. As to conditions: 30 min incubation with inhibitor, mean ± SD, triplicate. The protocol: as §1, §5, §3, §4
Assay [3] addresses T1, hCatK. The assay is described as follows: Jump dilution assay for reversibility of hCatK inhibition. Format: biochemical. The following applies: 300× dilution into fluorogenic substrate solution. As to the method:
FIG. 3 provides a schematic overview of a jump dilution assay. A) Dose response curve for a 300-fold dilution of inhibitor concentration from full inhibition to full activity. B) Protocol and concentrations for incubation and dilution. C) Progress curves for hCatK proteolytic activity with inhibitor compounds ODN, 4, 5, 6 after dilution.
Reversibility of protease inhibition by an inhibitor may be assessed in a jump dilution assay. An exemplary jump dilution assay is provided in R. A. Copeland, A. Basavapathruni, M. Moyer, M. P. Scott, Anal. Biochem. 2011, 416, 206. In a jump dilution assay the protease (e.g. CatK) is incubated with inhibitor at high concentration to allow full active site occupation, and subsequently diluted, e.g. 300×, into fluorogenic substrate solution resulting in an inhibitor concentration corresponding with full protease activity. The hydrolysis of fluorogenic substrate is monitored over an extended time period, e.g. at least 60 minutes. […] The assay results may be compared with the results using a known irreversible inhibitor of the protease as a control. E-64 represents an established pan-Cathepsin irreversible inhibitor, suitable for use as a positive control with most cysteine protease Cathepsins.
Reversibility of hCatK inhibition was assessed in a jump dilution assay. Established pan-Cathepsin inhibitor E-64 was taken along as a control for irreversible inhibition. Purified hCatK was incubated with inhibitors at high concentration to allow full active site occupation, and subsequently diluted 300× into fluorogenic substrate solution resulting in an inhibitor concentration corresponding with full activity (FIG. 3).

The next assay has as its target T2, Cathepsin K (Homo sapiens, UniProt P43235).
T2 sequence (P43235 115-329): T1 sequence (P43235 115-329)
The assay can be described thus: LC-MS of intact CatK and CatK-inhibitor complexes. Format: binding. As to the method:
The masses were determined from deconvoluted electrospray ionization mass spectra of CatK complexes. FIG. 4A to FIG. 4E each provide the result for a sample. In each of these FIGS. 4A to 4E the first panel provides the UPLC chromatogram, the second panel provides the electrospray ionization mass spectrum, and the third panel provides the corresponding deconvoluted electrospray ionization mass spectrum (average isotopes) with an indication of the measured mass of the predominant species. FIG. 4A provides the results obtained for intact CatK. FIG. 4B provides the results obtained for CatK.
Cathepsin K (3 μM) in reaction buffer ([…]) was incubated with inhibitor (100 μM) at 37° C. for 6 hours prior to analysis. 1 μL injections of the sample were made onto a XEVO-G2XSQTOF#YEA928 UPLC-MS system with a Waters Acquity CM detector. Chromatographic separation was carried out on a ACQUITY UPLC® Protein BEH C4 Column over a 12 minute gradient elution of 2% to 100% acetonitrile in water (0.1% formic acid) at a flow rate of 0.500 mL/min. For the first 4 minutes the flow was diverted to the waste to avoid contamination of the MS with high concentrations of buffer components. After 4 minutes, the elution flow was ionized with an ESI ionization source and measured on a XEVO-G2XSQTOF. The results were analyzed using MassLynx V4.1. The total mass of the complex was obtained by deconvolution of electrospray ionization mass spectrum envelope (average isotopes) with the MaxEnt1 function.
Cathepsin K was incubated with ODN, 4, 5 or 6 for 6 h to allow full covalent bond formation and submitted for measurement without any digestion steps, according to the method for LC-MS for intact CatK and CatK-inhibitor complexes described in the assays section above.

Entries after “also recorded” stand apart in the source; their conditions may differ. Read-outs that look alike come from different tables or passages of the source.

Sequence of hCatS (P25774 115-331): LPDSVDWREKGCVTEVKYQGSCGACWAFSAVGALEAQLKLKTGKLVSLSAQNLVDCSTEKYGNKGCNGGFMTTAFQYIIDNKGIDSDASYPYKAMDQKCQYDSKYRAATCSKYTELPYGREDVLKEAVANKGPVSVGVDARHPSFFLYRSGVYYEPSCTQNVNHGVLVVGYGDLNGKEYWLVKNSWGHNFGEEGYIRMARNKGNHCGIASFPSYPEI
Sequence of hCatL (P07711 114-333): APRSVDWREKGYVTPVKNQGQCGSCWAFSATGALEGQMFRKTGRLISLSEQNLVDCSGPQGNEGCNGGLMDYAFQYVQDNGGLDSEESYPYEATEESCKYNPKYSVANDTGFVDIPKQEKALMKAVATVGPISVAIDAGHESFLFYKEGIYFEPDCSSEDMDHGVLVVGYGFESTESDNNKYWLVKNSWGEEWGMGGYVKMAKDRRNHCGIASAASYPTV
Sequence of hCatV (O60911 114-334): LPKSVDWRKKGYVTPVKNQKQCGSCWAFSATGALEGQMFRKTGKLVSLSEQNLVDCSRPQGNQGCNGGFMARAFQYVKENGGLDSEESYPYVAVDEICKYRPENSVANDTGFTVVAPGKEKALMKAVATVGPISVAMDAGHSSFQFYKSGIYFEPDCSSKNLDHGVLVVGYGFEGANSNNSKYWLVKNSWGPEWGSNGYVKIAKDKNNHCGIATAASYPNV

Consider `CC(C)C[C@H](NC(=O)[C@H]1O[C@@H]1C(=O)O)C(=O)NCCCCN=C(N)N` [Compound E-64, reference compound], for which, at hCatK [1], it took 0.0019 ± 3.2e-05 µM to reach half-maximal inhibition (IC50). Further, the half-maximal inhibitory concentration (IC50) against hCatL was found to be 0.0035 ± 0.00022 µM. In addition, at hCatK [2], the maximal inactivation rate constant (kinact) came out at 0.081 min⁻¹, the kinact/Kl was determined as 117000 M⁻¹ s⁻¹ and the Ki is 0.0114 µM.
With `CC(C)(F)C[C@H](N[C@@H](c1ccc(-c2ccc(S(C)(=O)=O)cc2)cc1)C(F)(F)F)C(=O)NCC#CBr` [Compound 6, (S)—N-(3-bromoprop-2-yn-1-yl)-4-fluoro-4-methyl-2-(((S)-2,2,2-trifluoro-1-(4′-(methylsulfonyl)-[1,1′-biphenyl]-4-yl)ethyl)amino)pentanamide], the “selectivity for CatK over structurally related human Cathepsins” value on hCatK [1] (in words, from Table 2) is “all selectivity is lost”. Also, the concentration for half-maximal inhibition (IC50) against hCatK [1] came to 0.0469 ± 0.00181 µM; at hCatL, 0.102 ± 0.00514 µM; at hCatS, 0.0554 ± 0.00294 µM; against hCatV it was 0.0162 ± 0.000883 µM; against hCatB, 0.0986 ± 0.00588 µM. Also, the “reversibility of hCatK inhibition” value at hCatK [3] is given as “irreversible”. The kinact/Kl on hCatK [2] turned out to be 1650 M⁻¹ s⁻¹. Moreover, the Ki at hCatK [2] came to 0.193 µM. The kinact on hCatK [2] (read-out: kinact (converted)) was 0.019 min⁻¹. Further, the “formation of covalent CatK-inhibitor complex” value on Cathepsin K (6 h incubation, intact protein LC-MS) is recorded as “formation of a covalent hCatK—inhibitor complex; also recorded: covalent complex formed”. The same molecule showed a Measured mass complex on Cathepsin K (CatK 3 μM, inhibitor 100 μM, 37° C., 6 h, deconvoluted ESI mass) of 24296.
In the case of `C#CC1(NC(=O)[C@H](CC(C)(C)F)N[C@@H](c2ccc(-c3ccc(S(C)(=O)=O)cc3)cc2)C(F)(F)F)CC1` [Compound 3, (S)—N-(1-ethynylcyclopropyl)-4-fluoro-4-methyl-2-(((S)-2,2,2-trifluoro-1-(4′-(methylsulfonyl)-[1,1′-biphenyl]-4-yl)ethyl)amino)pentanamide], the IC50 is 26.2 ± 2.24 µM against hCatK [1]; above 100 µM against hCatL; above 100 µM against hCatS; above 100 µM against hCatV; above 100 µM against hCatB.
`CC(C)(F)C[C@H](N[C@@H](c1ccc(-c2ccc(S(C)(=O)=O)cc2)cc1)C(F)(F)F)C(=O)NCC#N` [Compound 2, (S)—N-(cyanomethyl)-4-fluoro-4-methyl-2-(((S)-2,2,2-trifluoro-1-(4′-(methylsulfonyl)-[1,1′-biphenyl]-4-yl)ethyl)amino)pentanamide, reference compound]: the values for the 50% inhibitory concentration (IC50) against hCatK [1], against hCatS and against hCatV were 0.00057 ± 9e-06 µM, 0.0178 ± 0.000303 µM and 0.909 ± 0.105 µM, respectively.
